Active and inactive are the calls of the source. The rule behind the calls is not given here.
test system: Vaccinia virus; experiment: Antiviral activity against Vaccinia virus Lederle Chorioallantoic assessed as inhibition of virus-induced cytopathogenicity; assay type: functional, organism-based; details: Orthopoxvirus vaccinia

Q: How did the Activity turn out when `N/N=C(/N)c1ncn([C@@H]2O[C@H](CO)[C@@H](N)[C@H]2O)n1` was run?
A: inactive

Q: Which Activity does the source give for `N[C@H]1[C@@H](O)[C@H](n2cnc(C(=O)NO)n2)O[C@@H]1CO` here?
A: inactive

Q: With `NC(=O)c1ncn([C@@H]2O[C@H](CO)[C@@H](N)[C@H]2O)n1` as the compound, how does the Activity read?
A: inactive

Q: For `N/C(=N/O)c1ncn([C@@H]2O[C@H](CO)[C@@H](N)[C@H]2O)n1`, which Activity is on record?
A: inactive

Q: For `NNC(=O)c1ncn([C@@H]2O[C@H](CO)[C@@H](N)[C@H]2O)n1`, which Activity is on record?
A: inactive

Q: Which Activity does the source give for `NC(=O)c1ncnn1[C@@H]1O[C@H](CO)[C@@H](N)[C@H]1O` here?
A: inactive

Reference: ChEMBL document CHEMBL3244073, “1,2,4-Triazole amino nucleosides. 1-beta-D-3'-Amino-3'-deoxyribofuranosyl-1,2,4-triazole-3-carboxamide and related nucleosides” (1977)
